Source: US6869913B1, “Pyridazin-3-one derivatives, their use and intermediates for their production” (Sumitomo Chemical Company, Limited, priority 1995, dated 2005)

Experiments:
Assay type in all cases: in vivo
[1] = test system: entireleaf morningglory (Ipomoea hederacea var. integriuscula); assay: Test Example 1: foliar treatment on upland fields; conditions: 500 g/ha active ingredient; foliar spray; examined 19 days after application
Description: (§1) Cylindrical plastic pots of 10 cm in diameter and 10 cm in depth were filled with soil, in which the seeds of […] (Ipomoea hederacea var. integriuscula) and velvetleaf (Abutilon theophrash) were sowed, and the test plants were grown in a greenhouse for 19 days. Each of the test compounds listed below was formulated into an emulsifiable concentrate according to Formulation Example 2, which was diluted with water containing a spreading agent to a prescribed concentration. The dilution was uniformly sprayed over the foliage of the test plants with a sprayer at a volume of 1000 liters per hectare. After the application, the test plants were grown in the greenhouse for 19 days, and the herbicidal activity was examined.

[2] = test system: velvetleaf (Abutilon theophrash); assay: Test Example 1: foliar treatment on upland fields; conditions: 500 g/ha active ingredient; foliar spray; examined 19 days after application
Description: as §1

[3] = test system: entireleaf morningglory (Ipomoea hederacea var. integriuscula); assay: Test Example 3: soil surface treatment on upland fields; conditions: 500 g/ha active ingredient; soil surface spray; examined after 19 days
Description: (§2) Cylindrical plastic pots of 10 cm in diameter and […] in depth were filled with soil, in which the seeds of […] (Ipomoea hederacea var. integriuscula) and velvetleaf (Abutilon theophrash) were sowed. Each of the test compounds listed below was formulated into an emulsifiable concentrate according to Formulation Example 2, which was diluted with water to a prescribed concentration. The dilution was uniformly sprayed over the soil surface in the pots with a sprayer at a volume of 1000 liters per hectare. After the application, the test plants were grown in a greenhouse for 19 days, and the herbicidal activity was examined.

[4] = test system: velvetleaf (Abutilon theophrash); assay: as above; conditions: 500 g/ha active ingredient; soil surface spray; examined after 19 days
Description: as §2

[5] = test system: barnyardgrass (Echinochloa oryzicola); assay: Test Example 4: flooding treatment on paddy fields; conditions: application amount of active ingredient 250 g/ha, examined 19 days after application, index 0 to 5
Description: Cylindrical plastic pots of 9 cm in diameter and 11 cm in depth were filled with soil, in which the seeds of barnyardgrass (Echinochloa oryzicola) were sowed. These pots were flooded to form a paddy field, and the test plants were grown in a greenhouse for 7 days. Each of the test compounds listed below was formulated into an emulsifiable concentrate according to Formulation Example 2, which was diluted with water to a prescribed concentration. The dilution was applied to the water surface in the pots at a volume of 50 liters per hectare. After the application, the test plants were grown in the greenhouse for 19 days, and the herbicidal activity was examined.

[6] = test system: barnyardgrass (Echinochloa crus-galli); assay: Test Example 2: foliar treatment on upland fields; design: key: rating; 4–5 = excellent activity, 3 or lower = insufficient; conditions: 32 g/ha active ingredient; foliar spray; examined 19 days after application
Text: (§3) The herbicidal activity is excellent when rated at “4” or “5” but insufficient when rated at “3” or lower. The phytotoxicity is no problematic on practical use when rated at “0” or “1” but not allowed when rated at “2” or higher.
(§4) Cylindrical plastic pots of 10 cm in diameter and 10 cm in depth were filled with soil, in which the seeds of barnyardgrass (Echinochloa crus-galli), entireleaf morningglory (Ipomoea hederacea var. integriuscula) and velvetleaf (Abutilon theophrash) were sowed, and the test plants were grown in a greenhouse for 19 days. Each of the test compounds listed below was formulated into an emulsifiable concentrate according to Formulation Example 2, which was diluted with water containing a spreading agent to a prescribed concentration. The dilution was uniformly sprayed over the foliage of the test plants with a sprayer at a volume of 1000 liters per hectare. After the application, the test plants were grown in the greenhouse for 19 days, and the herbicidal activity was examined.

[7] = test system: entireleaf morningglory (Ipomoea hederacea var. integriuscula); assay: Test Example 2: foliar treatment on upland fields; design: key: rating; 4–5 = excellent activity, 3 or lower = insufficient; conditions: 32 g/ha active ingredient; foliar spray; examined 19 days after application
Text: as §3, §4

[8] = test system: velvetleaf (Abutilon theophrash); assay: Test Example 2: foliar treatment on upland fields; design: key: rating; 4–5 = excellent activity, 3 or lower = insufficient; conditions: 32 g/ha active ingredient; foliar spray; examined 19 days after application
Text: as §3, §4

O=c1cc(C(F)(F)F)cnn1-c1ccc(Cl)cc1 [Compound 1-332, 2-(4-chlorophenyl)-5-trifluoromethylpyridazin-3-one]
5: Herbicidal activity Entireleaf morningglory [1] | Herbicidal activity Velvetleaf [2] | Herbicidal activity Entireleaf morningglory [3] | Herbicidal activity Velvetleaf [4] | Herbicidal activity Barnyardgrass [5]

Cc1c(C(F)(F)F)cnn(-c2cc(NS(C)(=O)=O)c(Cl)cc2F)c1=O [Compound 1-367, N-[2-chloro-4-fluoro-5-(4-methyl-5-trifluoromethyl-3-pyridazinon-2-yl)phenyl]methanesulfonamide]
5: Herbicidal activity Entireleaf morningglory [1] | Herbicidal activity Velvetleaf [2] | Herbicidal activity Entireleaf morningglory [3] | Herbicidal activity Velvetleaf [4] | Herbicidal activity Barnyardgrass [5]

Cc1c(C(F)(F)F)cnn(-c2cc(NS(=O)(=O)CCl)c(Cl)cc2F)c1=O [Compound 1-369, N-{2-chloro-4-fluoro-5-(4-methyl-5-trifluoromethyl-3-pyridazinon-2-yl)phenyl}chloromethanesulfonamide]
5: Herbicidal activity Entireleaf morningglory [1] | Herbicidal activity Velvetleaf [2] | Herbicidal activity Barnyardgrass [6] | Herbicidal activity Entireleaf morningglory [7] | Herbicidal activity Velvetleaf [8] | Herbicidal activity Entireleaf morningglory [3] | Herbicidal activity Velvetleaf [4] | Herbicidal activity Barnyardgrass [5]

Cc1c(C(F)(F)F)cnn(-c2cc(O)c(Cl)cc2F)c1=O [Compound 1-391, 2-[2-fluoro-4-chloro-5-hydroxyphenyl]4-methyl-5-trifluoromethylpyridazin-3-one]
5: Herbicidal activity Entireleaf morningglory [1] | Herbicidal activity Velvetleaf [2] | Herbicidal activity Entireleaf morningglory [3] | Herbicidal activity Velvetleaf [4] | Herbicidal activity Barnyardgrass [5]

CCOC(=O)C(C)Nc1cc(-n2ncc(C(F)(F)F)c(C)c2=O)c(F)cc1Cl (centres unmarked) [Compound 1-420, Ethyl 2-{2-chloro-4-fluoro-5-(4-methyl-5-trifluoromethyl-3-pyridazinon-2-yl)phenylamino}propionate]
5: Herbicidal activity Entireleaf morningglory [1] | Herbicidal activity Velvetleaf [2] | Herbicidal activity Barnyardgrass [6] | Herbicidal activity Entireleaf morningglory [7] | Herbicidal activity Velvetleaf [8] | Herbicidal activity Entireleaf morningglory [3] | Herbicidal activity Velvetleaf [4] | Herbicidal activity Barnyardgrass [5]

Cc1c(C(F)(F)F)cnn(-c2cc(OC(C)C)c(Cl)cc2F)c1=O [Compound 1-476, 2-[2-fluoro-4-chloro-5-isopropoxyphenyl]4-methyl-5-trifluoromethylpyridazin-3-one]
5: Herbicidal activity Entireleaf morningglory [1] | Herbicidal activity Velvetleaf [2] | Herbicidal activity Entireleaf morningglory [3] | Herbicidal activity Velvetleaf [4] | Herbicidal activity Barnyardgrass [5]

COC(=O)C(C)Sc1cc(-n2ncc(C(F)(F)F)cc2=O)c(F)cc1Cl (centres unmarked) [Compound 1-1221, Methyl 2-{2-chloro-4-fluoro-5-(5-trifluoromethyl-3-pyridazinon-2-yl)phenylthio}propionate]
5: Herbicidal activity Entireleaf morningglory [1] | Herbicidal activity Velvetleaf [2] | Herbicidal activity Barnyardgrass [6] | Herbicidal activity Entireleaf morningglory [7] | Herbicidal activity Velvetleaf [8] | Herbicidal activity Entireleaf morningglory [3] | Herbicidal activity Velvetleaf [4] | Herbicidal activity Barnyardgrass [5]

CCOC(=O)C(C)Sc1cc(-n2ncc(C(F)(F)F)cc2=O)c(F)cc1Cl (centres unmarked) [Compound 1-1222, Ethyl 2-{2-chloro-4-fluoro-5-(5-trifluoromethyl-3-pyridazinon-2-yl)phenylthio}propionate]
5: Herbicidal activity Entireleaf morningglory [1] | Herbicidal activity Velvetleaf [2] | Herbicidal activity Barnyardgrass [6] | Herbicidal activity Entireleaf morningglory [7] | Herbicidal activity Velvetleaf [8] | Herbicidal activity Entireleaf morningglory [3] | Herbicidal activity Velvetleaf [4] | Herbicidal activity Barnyardgrass [5]

Cc1c(C(F)(F)F)cnn(-c2cc(OC(C)C)c(Br)cc2F)c1=O [Compound 1-1783, 2-(4-bromo-2-fluoro-5-isopropyloxyphenyl)-4-methyl-5-trifluoromethylpyridazin-3-one]
5: Herbicidal activity Entireleaf morningglory [1] | Herbicidal activity Velvetleaf [2] | Herbicidal activity Barnyardgrass [6] | Herbicidal activity Entireleaf morningglory [7] | Herbicidal activity Velvetleaf [8] | Herbicidal activity Entireleaf morningglory [3] | Herbicidal activity Velvetleaf [4] | Herbicidal activity Barnyardgrass [5]

C#CCN1C(=O)COc2cc(F)c(-n3ncc(C(F)(F)F)c(C)c3=O)cc21 [Compound 2-251, 7-Fluoro-6-(4-methyl-5-trifluoromethyl-3-pyridazinon-2-yl)-4-propargyl-2H-1,4-benzoxazin-3-one]
5: Herbicidal activity Entireleaf morningglory [1] | Herbicidal activity Velvetleaf [2] | Herbicidal activity Barnyardgrass [6] | Herbicidal activity Entireleaf morningglory [7] | Herbicidal activity Velvetleaf [8] | Herbicidal activity Entireleaf morningglory [3] | Herbicidal activity Velvetleaf [4] | Herbicidal activity Barnyardgrass [5]

CCC(C)n1c(=O)sc2cc(F)c(-n3ncc(C(F)(F)F)c(C)c3=O)cc21 (centres unmarked) [Compound 2-328]
5: Herbicidal activity Entireleaf morningglory [1] | Herbicidal activity Velvetleaf [2] | Herbicidal activity Entireleaf morningglory [3] | Herbicidal activity Velvetleaf [4] | Herbicidal activity Barnyardgrass [5]

C#CCN1C(=O)COc2cc(F)c(-n3nc(C)c(C(F)(F)F)cc3=O)cc21 [Compound 2-821, 7-fluoro-6-(6-methyl-5-trifluoromethyl-3-pyridazinon-2-yl)-4-propargyl-2H-1,4-benzoxazin-3-one]
5: Herbicidal activity Entireleaf morningglory [1] | Herbicidal activity Velvetleaf [2] | Herbicidal activity Barnyardgrass [6] | Herbicidal activity Entireleaf morningglory [7] | Herbicidal activity Velvetleaf [8] | Herbicidal activity Entireleaf morningglory [3] | Herbicidal activity Velvetleaf [4] | Herbicidal activity Barnyardgrass [5]

Cc1cc2c(-n3ncc(C(F)(F)F)c(C)c3=O)c(F)cc(Cl)c2o1 [Compound 3-139]
5: Herbicidal activity Entireleaf morningglory [1] | Herbicidal activity Velvetleaf [2] | Herbicidal activity Barnyardgrass [5]

COC(=O)C1(C)Cc2c(c(Cl)cc(F)c2-n2ncc(C(F)(F)F)c(C)c2=O)O1 (centres unmarked) [Compound 4-434]
5: Herbicidal activity Entireleaf morningglory [1] | Herbicidal activity Velvetleaf [2] | Herbicidal activity Barnyardgrass [6] | Herbicidal activity Entireleaf morningglory [7] | Herbicidal activity Velvetleaf [8] | Herbicidal activity Entireleaf morningglory [3] | Herbicidal activity Velvetleaf [4] | Herbicidal activity Barnyardgrass [5]

Cc1c(C(F)(F)F)cnn(-c2c(F)cc(Cl)c3c2CC(C)(C)O3)c1=O [Compound 4-451]
5: Herbicidal activity Entireleaf morningglory [1] | Herbicidal activity Velvetleaf [2] | Herbicidal activity Barnyardgrass [5]
